Source: publication PMC9090415, “Discovery of small molecule inhibitors of Plasmodium falciparum apicoplast DNA polymerase” (Journal of Enzyme Inhibition and Medicinal Chemistry, 2022)

Target: P. falciparum apicoplast DNA polymerase (Pf-apPOL) (Plasmodium falciparum, UniProt Q8ILY1)
Assay: Fluorescence-based high-throughput DNA polymerase assay (molecular beacon), primary screen and dose-response
Type: biochemical
Conditions: for DNA Pol: 90 min, 10 µM; for % inhibition Apo pol 5': DRC-2, 5'
Protocol: The HT assay employs a molecular beacon, a stem-loop DNA template with a Cy3 dye and the Black Hole Quencher on the 3′ and 5′ ends of the DNA, respectively. Pf-apPOL concentration is based on a calculated absorptivity of ε280 = 56750 M^−1 cm^−1. Reactions were carried out at 25 °C, using Corning 3575 […] (well-volume, 20 µL). Assays testing for compound inhibition composed of reaction buffer (pH 7.9 in 50 mM potassium acetate, 20 mM Tris-acetate and 10 mM magnesium acetate), Pf-apPOL (20 nM), DNA substrate (20 nM), dNTPs (6 µM), and compound (10 µM in DMSO). The DNA and nucleotide substrates (dNTPs) were at concentrations of 20 nM and 6 µM, respectively, in the assay. Pf-apPOL was incubated in the reaction buffer with dNTPs and the compound of interest (10 µM, in the assay) at 25 °C for 10 min. The DNA substrate was then added and the reaction was allowed to proceed for 90 min at 25 °C.
Each assay plate contained 16 negative controls (no Pf-apPOL, DMSO present) and 16 positive controls (Pf-apPOL present, no DMSO). The fluorescence of each well was determined using a BioTek Synergy Neo fluorescence plate reader using excitation and emission wavelengths of 555 and 570 nm, respectively.
In the above, Min is the average of fluorescence emission of the negative controls (substrate only), Max the average fluorescence emission from the positive controls (enzyme + substrate), and Test the emission from the assays in the presence of compounds (enzyme + compound + substrates). […] […] The IC50 of each compound was determined using Equation (2): (2) IC50= Vmax/(1+ (I/IC50)^n)
In the above, n measures cooperativity, with n > 1 indicating synergistic binding of more than a single molecule of the compound.
To identify apPOL inhibitors we utilised our previously developed high-throughput DNA polymerase assay. The HT assay is based on a molecular beacon DNA template that forms a stem-loop with a Cy3 dye and the Black Hole Quencher on the 3′ and 5′ ends of the DNA, respectively. DNA polymerase activity extends an annealed primer through the stem region, displacing the fluorophore from the quencher, thereby increasing its fluorescence (Figure 1(A)). The assay accurately recapitulates the kinetic behaviour of apPOL, as measured through more conventional low-throughput gel-based assays. The Z′ factor for the assay described here was 0.9 across all plates (data not shown).
Figure 1. High-throughput screening. (A) The fluorescent-based DNA polymerase assay used to screen the compound libraries. The DNA template strand is a hairpin loop with a primer annealed to the loop. The 3’ end of the primer is 11 bases away from the 6 bp duplex. Strand displacement activity of the DNA polymerase separates the Cy3 dye from the Black hole quencher leading to an increase in fluorescent signal. (B) The high-throughput assay workflow. The DNA polymerase is incubated with […] compound for 10 min prior to addition of the hairpin substrate. The reaction is quenched at 3 different time points and the fluorescent signal is measured and % inhibition is determined using the provided equation.

[1] = 'DNA Pol', screening value, unit not given
[2] = conc 40 (unit not given), 40', DRC-2
[3] = primary screen hit value, DNA Pol (186 hits)

Sequence of P. falciparum apicoplast DNA polymerase (Pf-apPOL) (Q8ILY1 entry or part of it): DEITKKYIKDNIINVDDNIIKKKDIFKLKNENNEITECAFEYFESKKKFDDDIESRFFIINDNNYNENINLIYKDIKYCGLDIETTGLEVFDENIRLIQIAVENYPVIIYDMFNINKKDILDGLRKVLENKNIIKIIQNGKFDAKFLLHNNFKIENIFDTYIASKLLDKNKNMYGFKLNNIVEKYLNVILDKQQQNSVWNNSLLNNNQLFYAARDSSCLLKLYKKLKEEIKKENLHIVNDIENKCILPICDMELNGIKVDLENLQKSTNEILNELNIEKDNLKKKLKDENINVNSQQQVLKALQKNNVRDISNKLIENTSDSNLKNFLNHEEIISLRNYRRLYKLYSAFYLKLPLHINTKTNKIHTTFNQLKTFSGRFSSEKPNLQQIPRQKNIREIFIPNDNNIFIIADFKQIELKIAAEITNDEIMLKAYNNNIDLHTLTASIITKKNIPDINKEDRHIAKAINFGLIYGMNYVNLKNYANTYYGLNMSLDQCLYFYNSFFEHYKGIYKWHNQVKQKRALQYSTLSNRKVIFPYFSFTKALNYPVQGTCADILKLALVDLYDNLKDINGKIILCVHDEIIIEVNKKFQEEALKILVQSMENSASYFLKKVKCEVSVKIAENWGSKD

CC1=NNC(=O)C1Oc1ccc(Cl)cc1Cl (stereo not shown) [KU0265591]
DNA Pol [1]: 75
% inhibition Apo pol 10' (DRC-1, concentration 2.5): 8.365%
% inhibition Apo pol 10' (DRC-1, concentration 5): 10.5259%
% inhibition Apo pol 10' (DRC-1, concentration 10): 21.6096%
% inhibition Apo pol 10' (DRC-1, concentration 20): 39.4478%
% inhibition Apo pol 10' (DRC-1, concentration 40): 60.3328%
% inhibition Apo pol 10' (DRC-1, concentration 80): 74.8276%
% inhibition Apol 90' (DRC-1, 90', concentration 2.5): -1.52%
% inhibition Apol 90' (DRC-1, 90', concentration 5): -3.728%
% inhibition Apol 90' (DRC-1, 90', concentration 10): 5.588%
% inhibition Apol 90' (DRC-1, 90', concentration 20): 19.9514%
% inhibition Apol 90' (DRC-1, 90', concentration 40): 37.9721%
% inhibition Apol 90' (DRC-1, 90', concentration 80): 53.1645%
% inhibition apPOL 180' (DRC-1, 180', concentration 2.5): -5.173%
% inhibition apPOL 180' (DRC-1, 180', concentration 5): -9.633%
% inhibition apPOL 180' (DRC-1, 180', concentration 10): -1.598%
% inhibition apPOL 180' (DRC-1, 180', concentration 20): 9.166%
% inhibition apPOL 180' (DRC-1, 180', concentration 40): 27.6068%
% inhibition apPOL 180' (DRC-1, 180', concentration 80): 41.8944%
% inhibition Apo pol 5' (concentration 2.5): 10%
% inhibition Apo pol 5' (concentration 5): 12%
% inhibition Apo pol 5' (concentration 10): 24%
% inhibition Apo pol 5' (concentration 20): 32%
% inhibition Apo pol 5' (concentration 40): 45%
% inhibition Apo pol 5' (concentration 80): 52%
% inhibition Apol 40' (DRC-2, 40', concentration 2.5): 5%
% inhibition Apol 40' (DRC-2, 40', concentration 5): 4.74%
% inhibition Apol 40' (DRC-2, 40', concentration 10): 15%
% inhibition Apol 40' (DRC-2, 40', concentration 20): 26%
% inhibition Apol 40' (DRC-2, 40', concentration 40): 42%
% inhibition Apol 40' (DRC-2, 40', concentration 80): 53%
% inhibition ApPOL 90' (DRC-2, 90', concentration 2.5): 1.69%
% inhibition ApPOL 90' (DRC-2, 90', concentration 5): -0.164%
% inhibition ApPOL 90' (DRC-2, 90', concentration 10): 9%
% inhibition ApPOL 90' (DRC-2, 90', concentration 20): 20%
% inhibition ApPOL 90' (DRC-2, 90', concentration 40): 37%
% inhibition ApPOL 90' (DRC-2, 90', concentration 80): 51%
% inhibition apPOL 180' (DRC-2, 180', concentration 2.5): -3.43%
% inhibition apPOL 180' (DRC-2, 180', concentration 5): -6%
% inhibition apPOL 180' (DRC-2, 180', concentration 10): -1.09%
% inhibition apPOL 180' (DRC-2, 180', concentration 20): 9%
% inhibition apPOL 180' (DRC-2, 180', concentration 40): 26%
% inhibition apPOL 180' (DRC-2, 180', concentration 80): 42%
% inhibition ApPOL 90' (conc 10 (unit not given), 90', DRC-2): 9%
% inhibition Apol 40' (conc 20 (unit not given), 40', DRC-2): 26%
% inhibition apPOL 180' (conc 20 (unit not given), 180', DRC-2): 9%
% inhibition Apol 40' [2]: 42%
% inhibition apPOL 180' (conc 40 (unit not given), 180', DRC-2): 26%
% inhibition apPOL 180' (conc 80 (unit not given), 180', DRC-2): 42%
DNA Pol [3]: 75

CCSc1nnc(NC(=O)Cc2csc(NC(=O)c3cnccn3)n2)s1 [Molecule 79]
IC50 (supplemental file 2, sheet IC50 nontoxic compounds, Pf-apPOL): 46.7 µM

O=C(c1c[nH]c2ncccc12)N1CCCCCC1 [Molecule 51, O=C(c1c[nH]c2c1cccn2)N1CCCCCC1]
DNA Pol [1]: 25
% inhibition Apo pol 10' (DRC-1, concentration 2.5): 0.9621%
% inhibition Apo pol 10' (DRC-1, concentration 5): 3.05%
% inhibition Apo pol 10' (DRC-1, concentration 10): 7.159%
% inhibition Apo pol 10' (DRC-1, concentration 20): 44.6815%
% inhibition Apo pol 10' (DRC-1, concentration 40): 69.4342%
% inhibition Apo pol 10' (DRC-1, concentration 80): 66.9665%
% inhibition Apol 90' (DRC-1, 90', concentration 2.5): 1.194%
% inhibition Apol 90' (DRC-1, 90', concentration 5): 0.544%
% inhibition Apol 90' (DRC-1, 90', concentration 10): 3.081%
% inhibition Apol 90' (DRC-1, 90', concentration 20): 31.7125%
% inhibition Apol 90' (DRC-1, 90', concentration 40): 60.4317%
% inhibition Apol 90' (DRC-1, 90', concentration 80): 59.6767%
% inhibition apPOL 180' (DRC-1, 180', concentration 2.5): -0.2836%
% inhibition apPOL 180' (DRC-1, 180', concentration 5): -4.489%
% inhibition apPOL 180' (DRC-1, 180', concentration 10): -1.621%
% inhibition apPOL 180' (DRC-1, 180', concentration 20): 18.2058%
% inhibition apPOL 180' (DRC-1, 180', concentration 40): 46.8298%
% inhibition apPOL 180' (DRC-1, 180', concentration 80): 46.9776%
% inhibition Apo pol 5' (concentration 2.5): 0.781%
% inhibition Apo pol 5' (concentration 5): 2.7%
% inhibition Apo pol 5' (concentration 10): 24%
% inhibition Apo pol 5' (concentration 20): 38%
% inhibition Apo pol 5' (concentration 40): 34%
% inhibition Apo pol 5' (concentration 80): 36%
% inhibition Apol 40' (DRC-2, 40', concentration 2.5): 4%
% inhibition Apol 40' (DRC-2, 40', concentration 5): 4.4%
% inhibition Apol 40' (DRC-2, 40', concentration 10): 28%
% inhibition Apol 40' (DRC-2, 40', concentration 20): 47%
% inhibition Apol 40' (DRC-2, 40', concentration 40): 45%
% inhibition Apol 40' (DRC-2, 40', concentration 80): 61%
% inhibition ApPOL 90' (DRC-2, 90', concentration 2.5): 2.81%
% inhibition ApPOL 90' (DRC-2, 90', concentration 5): 3.55%
% inhibition ApPOL 90' (DRC-2, 90', concentration 10): 25%
% inhibition ApPOL 90' (DRC-2, 90', concentration 20): 46%
% inhibition ApPOL 90' (DRC-2, 90', concentration 40): 45%
% inhibition ApPOL 90' (DRC-2, 90', concentration 80): 68%
% inhibition apPOL 180' (DRC-2, 180', concentration 2.5): -1%
% inhibition apPOL 180' (DRC-2, 180', concentration 5): -0.742%
% inhibition apPOL 180' (DRC-2, 180', concentration 10): 17%
% inhibition apPOL 180' (DRC-2, 180', concentration 20): 37%
% inhibition apPOL 180' (DRC-2, 180', concentration 40): 35%
% inhibition apPOL 180' (DRC-2, 180', concentration 80): 72%
% inhibition Apol 40' [2]: 45%
% inhibition ApPOL 90' (conc 40 (unit not given), 90', DRC-2): 45%
DNA Pol [3]: 25
